ChEMBL document CHEMBL2390906, “Synthetic chalcones and sulfonamides as new classes of Yersinia enterocolitica YopH tyrosine phosphatase inhibitors” (Eur J Med Chem, 2013)

What was measured:
[1] = biological target: T1, Tyrosine-protein phosphatase YopH (Yersinia enterocolitica, UniProt P15273); test: Inhibition of Yersinia enterocolitica recombinant YopH using pNPP as substrate after 10 mins by spectrophotometry
[2] = biological target: Tyrosine-protein phosphatase YopH (Yersinia enterocolitica) (UniProt P15273); test: Inhibition of Yersinia enterocolitica recombinant YopH using pNPP as substrate at 25 uM after 10 mins by spectrophotometry
[3] = biological target: T1, Tyrosine-protein phosphatase YopH; test: Competitive inhibition of Yersinia enterocolitica recombinant YopH using pNPP as substrate after 10 mins by Line-weaver Burk plot analysis
[4] = biological target: T1, Tyrosine-protein phosphatase YopH; test: Noncompetitive inhibition of Yersinia enterocolitica recombinant YopH using pNPP as substrate after 10 mins by Line-weaver Burk plot analysis

T1 sequence (P15273 whole entry): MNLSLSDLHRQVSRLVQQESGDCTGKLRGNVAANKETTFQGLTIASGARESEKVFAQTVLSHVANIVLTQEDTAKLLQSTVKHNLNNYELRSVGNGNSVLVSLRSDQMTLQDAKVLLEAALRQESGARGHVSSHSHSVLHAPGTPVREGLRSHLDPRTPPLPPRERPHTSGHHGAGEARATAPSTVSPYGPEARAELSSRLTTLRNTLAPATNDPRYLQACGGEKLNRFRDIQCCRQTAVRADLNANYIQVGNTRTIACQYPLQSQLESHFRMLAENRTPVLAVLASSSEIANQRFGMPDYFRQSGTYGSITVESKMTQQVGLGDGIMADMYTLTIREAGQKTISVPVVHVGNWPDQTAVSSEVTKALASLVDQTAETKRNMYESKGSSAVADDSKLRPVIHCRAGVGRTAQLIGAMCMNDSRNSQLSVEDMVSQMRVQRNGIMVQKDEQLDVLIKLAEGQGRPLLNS
Sequence of Tyrosine-protein phosphatase YopH (Yersinia enterocolitica) (P15273 whole entry): as above

Row | SMILES | IC50 [1] | inhibition [2] | Ki [3] | Ki [4]
1 | COc1ccc2nc(Cl)c(/C=C/C(=O)c3ccc4ccccc4c3)cc2c1 | 268 µM | 34.6% |  | 
2 | O=C(/C=C/c1ccccc1)c1ccc2ccccc2c1 | 246 µM | 30.9% |  | 
3 | O=C(/C=C/c1ccc(-c2cc(C(F)(F)F)ccc2Cl)o1)c1ccc2c(c1)OCO2 | 38.6 µM | 33.8% | 11.1 µM | 
4 | O=C1[C@@H]2C3C=CC(O3)[C@@H]2C(=O)N1c1ccc(S(=O)(=O)N2CCCC2)cc1 | 9 µM | 76.4% | 4.4 µM | 
5 | CC12C=CC(O1)[C@H]1C(=O)N(c3ccc(S(=O)(=O)N/N=C/c4ccc(Cl)c(Cl)c4)cc3)C(=O)[C@H]12 (stereo not given in full) | 62.2 µM | 45.6% |  | 
6 | O=C(/C=C/c1ccc2c(c1)OCO2)c1cccc([N+](=O)[O-])c1 | 9.9 µM | 31.3% | 4.5 µM | 
7 | O=C(/C=C/c1ccc2c(c1)OCO2)c1ccc([N+](=O)[O-])cc1 | 15.1 µM | 65.7% | 4.4 µM | 
8 | O=C1c2cccc3c(Cl)ccc(c23)C(=O)N1Cc1ccc(S(=O)(=O)N2CCOCC2)cc1 | 15.5 µM | 82.1% |  | 36 µM
9 | O=C(/C=C/c1cc2ccccc2nc1Cl)c1ccc2c(c1)OCO2 | 117 µM | 44.2% |  | 
10 | O=C(/C=C/c1cccc([N+](=O)[O-])c1)c1ccc2ccccc2c1 | 122 µM | 34.7% |  | 
11 | O=C(/C=C/c1cccc2ccccc12)c1ccc2ccccc2c1 | 193 µM | 26.5% |  | 
12 | O=C(/C=C/c1ccc2ccccc2c1)c1ccc2ccccc2c1 | 20.3 µM | 66.9% | 14.1 µM | 
